Measured values published in the supplement of paper PMC13380429.

What was measured:
U2OS [1] = test: relative viability EC50 (midpoint between 100% and the lowest measured viability); higher = less toxic; conditions: 72 h
Vero E6 [2] = test: as above; conditions: 72 h
Calu-3 [3] = test: as above; conditions: 72 h
Caco-2 [4] = test: as above; conditions: 72 h
A549-ACE2 [5] = test: phospholipidosis EC50; higher = less potent phospholipidosis inducer
[6] = test system: A549-ACE2 infected with SARS-CoV-2; test: SARS-CoV-2 infection rate relative to DMSO; higher = more infection; conditions: 24 h
A549-ACE2 [7] = test: drug-induced phospholipidosis relative to tamoxifen; higher = more phospholipidosis
U2OS [8] = test: cell viability relative to DMSO; higher = less toxic; conditions: 72 h
Vero E6 [9] = test: as above; conditions: 72 h
HepG2 [10] = test: as above; conditions: 72 h
Calu-3 [11] = test: as above; conditions: 72 h
Caco-2 [12] = test: as above; conditions: 72 h
[13] = test system: A549-ACE2 infected with SARS-CoV-2; test: morphology score (similarity to uninfected cells); higher = more like uninfected cells; conditions: 24 h
[14] = test system: A549-ACE2 infected with SARS-CoV-2; test: cell count relative to DMSO; higher = less toxic; conditions: 24 h
U2OS [15] = test: drug sensitivity score (DSS) for viability; higher = more toxic; extreme values may be limits of the assay; conditions: 72 h
Vero E6 [16] = test: as above; conditions: 72 h
HepG2 [17] = test: as above; conditions: 72 h
Calu-3 [18] = test: as above; conditions: 72 h
Caco-2 [19] = test: as above; conditions: 72 h
HepG2 [20] = test: relative viability EC50 (midpoint between 100% and the lowest measured viability); higher = less toxic; conditions: 72 h

O=C(CN1C2=NCCN2c2ccccc21)c1ccc(-c2ccccc2)cc1
Conditions | drug sensitivity score | relative viability EC50 [µM]
Caco-2 [4] | – | > 10
Caco-2 [19] | 0 | –
Calu-3 [3] | – | > 10
Calu-3 [18] | 0.4 | –
HepG2 [17] | 1.2 | –
U2OS [1] | – | > 10
U2OS [15] | 0 | –
Vero E6 [2] | – | > 10
Vero E6 [16] | 0.8 | –

Conditions | SARS-CoV-2 infection rate [%] | cell count [%] | cell viability [%] | morphology score | phospholipidosis EC50 [µM]
A549-ACE2 [5], 24 h | – | – | – | – | 5.39
A549-ACE2 [5], 48 h | – | – | – | – | 7.27
A549-ACE2 [5], 72 h | – | – | – | – | 8.25
Caco-2 [12], 1 nM | – | – | 99.6 | – | –
Caco-2 [12], 10 nM | – | – | 102 | – | –
Caco-2 [12], 100 nM | – | – | 110 | – | –
Caco-2 [12], 1000 nM | – | – | 102 | – | –
Caco-2 [12], 10000 nM | – | – | 88.8 | – | –
Calu-3 [11], 1 nM | – | – | 94.5 | – | –
Calu-3 [11], 10 nM | – | – | 99.2 | – | –
Calu-3 [11], 100 nM | – | – | 92.9 | – | –
Calu-3 [11], 1000 nM | – | – | 100 | – | –
Calu-3 [11], 10000 nM | – | – | 82.2 | – | –
HepG2 [10], 1 nM | – | – | 98.7 | – | –
HepG2 [10], 10 nM | – | – | 97.4 | – | –
HepG2 [10], 100 nM | – | – | 95.1 | – | –
HepG2 [10], 1000 nM | – | – | 98.4 | – | –
HepG2 [10], 10000 nM | – | – | 74.1 | – | –
U2OS [8], 1 nM | – | – | 108 | – | –
U2OS [8], 10 nM | – | – | 104 | – | –
U2OS [8], 100 nM | – | – | 99.1 | – | –
U2OS [8], 1000 nM | – | – | 99.3 | – | –
U2OS [8], 10000 nM | – | – | 90.6 | – | –
Vero E6 [9], 1 nM | – | – | 103 | – | –
Vero E6 [9], 10 nM | – | – | 99.5 | – | –
Vero E6 [9], 100 nM | – | – | 98.8 | – | –
Vero E6 [9], 1000 nM | – | – | 95.4 | – | –
Vero E6 [9], 10000 nM | – | – | 83.4 | – | –
[6], 0.3 µM | 105 | – | – | – | –
[6], 3 µM | 67 | – | – | – | –
[6], 10 µM | 14 | – | – | – | –
[6], 30 µM | 51 | – | – | – | –
[13], 0.3 µM | – | – | – | -0.08 | –
[13], 3 µM | – | – | – | 0.58 | –
[13], 10 µM | – | – | – | 0.78 | –
[13], 30 µM | – | – | – | -0.05 | –
[14], 0.3 µM | – | 101 | – | – | –
[14], 3 µM | – | 114 | – | – | –
[14], 10 µM | – | 118 | – | – | –
[14], 30 µM | – | 106 | – | – | –

drug-induced phospholipidosis [%], A549-ACE2 [7]
Conditions | 0.3 µM | 0.833333 µM | 3.33333 µM | 6.66667 µM | 10 µM | 30 µM
24 h | 2.47 | 0.7 | 26.4 | 46.9 | 91.5 | 84
48 h | 4.83 | 1.26 | 21.7 | 49.5 | 106 | 117
72 h | 2.9 | -4.28 | 15 | 36.6 | 99.6 | –

FC(F)(F)c1cc(CO[C@H]2CCCN[C@H]2c2ccccc2)cc(C(F)(F)F)c1
Conditions | drug sensitivity score | relative viability EC50 [µM]
Caco-2 [4] | – | > 10
Caco-2 [19] | 2.5 | –
Calu-3 [3] | – | 3.27
Calu-3 [18] | 4.4 | –
HepG2 [17] | 0 | –
HepG2 [20] | – | > 10
U2OS [1] | – | > 10
U2OS [15] | 0 | –
Vero E6 [2] | – | > 10
Vero E6 [16] | 0 | –

Conditions | SARS-CoV-2 infection rate [%] | cell count [%] | cell viability [%] | morphology score | phospholipidosis EC50 [µM]
A549-ACE2 [5], 24 h | – | – | – | – | 2.17
A549-ACE2 [5], 48 h | – | – | – | – | 2.92
A549-ACE2 [5], 72 h | – | – | – | – | 3.8
Caco-2 [12], 1 nM | – | – | 108 | – | –
Caco-2 [12], 10 nM | – | – | 106 | – | –
Caco-2 [12], 100 nM | – | – | 91.1 | – | –
Caco-2 [12], 1000 nM | – | – | 87.2 | – | –
Caco-2 [12], 10000 nM | – | – | 83.6 | – | –
Calu-3 [11], 1 nM | – | – | 97.4 | – | –
Calu-3 [11], 10 nM | – | – | 97.6 | – | –
Calu-3 [11], 100 nM | – | – | 102 | – | –
Calu-3 [11], 1000 nM | – | – | 101 | – | –
Calu-3 [11], 10000 nM | – | – | 18.1 | – | –
HepG2 [10], 1 nM | – | – | 104 | – | –
HepG2 [10], 10 nM | – | – | 97.9 | – | –
HepG2 [10], 100 nM | – | – | 97.8 | – | –
HepG2 [10], 1000 nM | – | – | 107 | – | –
HepG2 [10], 10000 nM | – | – | 88.4 | – | –
U2OS [8], 1 nM | – | – | 104 | – | –
U2OS [8], 10 nM | – | – | 101 | – | –
U2OS [8], 100 nM | – | – | 105 | – | –
U2OS [8], 1000 nM | – | – | 96.2 | – | –
U2OS [8], 10000 nM | – | – | 92.1 | – | –
Vero E6 [9], 1 nM | – | – | 96.7 | – | –
Vero E6 [9], 10 nM | – | – | 102 | – | –
Vero E6 [9], 100 nM | – | – | 102 | – | –
Vero E6 [9], 1000 nM | – | – | 99.1 | – | –
Vero E6 [9], 10000 nM | – | – | 89.4 | – | –
[6], 0.3 µM | 95 | – | – | – | –
[6], 3 µM | 57 | – | – | – | –
[6], 10 µM | 16 | – | – | – | –
[6], 30 µM | 42 | – | – | – | –
[13], 0.3 µM | – | – | – | 0.12 | –
[13], 3 µM | – | – | – | 0.72 | –
[13], 10 µM | – | – | – | 0.92 | –
[13], 30 µM | – | – | – | 0.01 | –
[14], 0.3 µM | – | 100 | – | – | –
[14], 3 µM | – | 113 | – | – | –
[14], 10 µM | – | 121 | – | – | –
[14], 30 µM | – | 69 | – | – | –

drug-induced phospholipidosis [%], A549-ACE2 [7]
Conditions | 0.3 µM | 0.833333 µM | 3.33333 µM | 6.66667 µM | 10 µM
24 h | 3.76 | 11.4 | 79.2 | 99.1 | 104
48 h | 4.92 | 7.68 | 61.5 | 89.2 | 97.2
72 h | 5.63 | 5.43 | 40.2 | 85 | 93

Clc1ccccc1CNC[C@H]1CC[C@H](CNCc2ccccc2Cl)CC1 [AY-9944]
Conditions | drug sensitivity score | relative viability EC50 [µM]
Caco-2 [4] | – | > 10
Caco-2 [19] | 0.8 | –
Calu-3 [3] | – | 3.6
Calu-3 [18] | 4.6 | –
HepG2 [17] | 2.3 | –
U2OS [1] | – | > 10
U2OS [15] | 0 | –
Vero E6 [2] | – | > 10
Vero E6 [16] | 0 | –

Conditions | SARS-CoV-2 infection rate [%] | cell count [%] | cell viability [%] | morphology score | phospholipidosis EC50 [µM]
A549-ACE2 [5], 24 h | – | – | – | – | 5.85
A549-ACE2 [5], 48 h | – | – | – | – | 5.4
A549-ACE2 [5], 72 h | – | – | – | – | 4.53
Caco-2 [12], 1 nM | – | – | 99.5 | – | –
Caco-2 [12], 10 nM | – | – | 108 | – | –
Caco-2 [12], 100 nM | – | – | 99.7 | – | –
Caco-2 [12], 1000 nM | – | – | 95.1 | – | –
Caco-2 [12], 10000 nM | – | – | 83.7 | – | –
Calu-3 [11], 1 nM | – | – | 97.7 | – | –
Calu-3 [11], 10 nM | – | – | 104 | – | –
Calu-3 [11], 100 nM | – | – | 106 | – | –
Calu-3 [11], 1000 nM | – | – | 108 | – | –
Calu-3 [11], 10000 nM | – | – | 7.3 | – | –
HepG2 [10], 1 nM | – | – | 104 | – | –
HepG2 [10], 10 nM | – | – | 96 | – | –
HepG2 [10], 100 nM | – | – | 110 | – | –
HepG2 [10], 1000 nM | – | – | 98.1 | – | –
HepG2 [10], 10000 nM | – | – | 59.2 | – | –
U2OS [8], 1 nM | – | – | 97.4 | – | –
U2OS [8], 10 nM | – | – | 102 | – | –
U2OS [8], 100 nM | – | – | 103 | – | –
U2OS [8], 1000 nM | – | – | 107 | – | –
U2OS [8], 10000 nM | – | – | 92.8 | – | –
Vero E6 [9], 1 nM | – | – | 102 | – | –
Vero E6 [9], 10 nM | – | – | 104 | – | –
Vero E6 [9], 100 nM | – | – | 105 | – | –
Vero E6 [9], 1000 nM | – | – | 94.5 | – | –
Vero E6 [9], 10000 nM | – | – | 90 | – | –
[6], 0.3 µM | 86 | – | – | – | –
[6], 3 µM | 39 | – | – | – | –
[6], 10 µM | 17 | – | – | – | –
[6], 30 µM | 34 | – | – | – | –
[13], 0.3 µM | – | – | – | 0.42 | –
[13], 3 µM | – | – | – | 0.76 | –
[13], 10 µM | – | – | – | 0.56 | –
[13], 30 µM | – | – | – | 0.08 | –
[14], 0.3 µM | – | 104 | – | – | –
[14], 3 µM | – | 123 | – | – | –
[14], 10 µM | – | 126 | – | – | –
[14], 30 µM | – | 113 | – | – | –

drug-induced phospholipidosis [%], A549-ACE2 [7]
Conditions | 0.3 µM | 0.833333 µM | 3.33333 µM | 6.66667 µM | 10 µM | 30 µM
24 h | 20.6 | 37.8 | 77.7 | 88.2 | 96.4 | 121
48 h | 14.1 | 38.1 | 78.4 | 112 | 116 | 148
72 h | 17.5 | 29.9 | 79.3 | 115 | 128 | 157
